Laboratory results reported in PMC9229165, “In Vitro Anticancer Activity Screening of Novel Fused Thiophene Derivatives as VEGFR-2/AKT Dual Inhibitors and Apoptosis Inducers” (Pharmaceuticals, 2022).
Several values for one entry are separate records, joined by “and”; a condition that tells them apart may be missing. Equal entries are not always repeated. Where two headings read alike, the source gives them in different places.

Key:
HepG2 cells [1] = test: MTT antiproliferative assay on HepG2; type: cell-based; settings: mean ± S.D. (n = 3), read-out: Cytotoxicity in IC50, HepG2
Description: (§1) The antiproliferative activity of the thiophene compounds 3a–g, 4a–c, 6a, and 7a–d was evaluated by an in vitro MTT colorimetric assay on two oncogenic cell lines: liver (HepG2) and prostate (PC-3).
(§2) All cell lines (HepG2, PC-3, and nontumorigenic WI38) were supplied from VACSERA (Cairo, Egypt), cultured in DMEM (Invitrogen/Life Technologies, Waltham, MA, USA) at a density of 1.2–1.8 × 10,000 cells/well in a volume of 100 µL of the growth medium, and then incubated for 24 h, and an MTT assay was done as reported by.

PC-3 cells = test: MTT antiproliferative assay on PC-3; type: cell-based; settings: mean ± S.D. (n = 3), read-out: Cytotoxicity in IC50, PC-3
Description: as §1, §2

[2] = MTT assay on normal nononcogenic cell line WI38; type: cell-based; settings: human, WI38 cells (normal nononcogenic cell line); MTT assay; noncancerous cell line; mean ± S.D. (n = 3); read-out: Cytotoxicity in IC50, WI38
Description: (§3) The aforementioned results illustrate that compounds 3b and 4c are the most promising cytotoxic agents on both cell lines and will be subjected to a thorough mechanistic study to understand their anticancer activity. However, before doing this, their selective toxicity and, thus, their safety were evaluated by measuring the IC50 values against the normal nononcogenic cell line (Wl38) by an MTT assay as listed in Table 1. […] Compound 3b gave SI of 6, and compound 4c gave SI = 12 showing better selectivity toward cancer cells than doxorubicin with SI = 5.
as §2

WI38 cells = test: MTT assay on normal nononcogenic cell line WI38; type: cell-based; settings: calculated by dividing the IC50 of WI38/PC-3, SI > 2 is considered safe
Description: as §3, §2

VEGFR-2 [3] = target: T1, VEGFR-2 (Homo sapiens, UniProt P35968); test: VEGFR-2 phosphorylation cell-based ELISA in HepG2 cells; settings: compounds at their formerly determined IC50
Description: VEGFR-2 phosphorylation was assayed using VEGFR2 Antibody (Phospho-Tyr951) (OAEC00085, AVIVA SYSTEM BIOLOGY) [53], while Akt-1 was assayed by Mouse/Human/Rat Phospho-AKT1 (Ser473) (Cell-Based Phosphorylation ELISA) ELISA Kit-LS-F1447 (LSBio) according to manufacturer’s instructions [54].

AKT-1 [4] = target: T2, AKT-1 (Homo sapiens, UniProt P31749); test: Akt kinase activity assay kit on cell lysate; type: biochemical; settings: LY2780301 as reference
Description: (§5) The outcomes were expressed as IC50 values (mean standard deviation) calculated from the dose–response curves and their linear regression equations.

HepG2 cells [5] = test: Flow cytometric cell cycle analysis; type: cell-based; settings: HepG2, 48 h, at IC50
Description: AKT-1 is known for its downstream activation of several proteins involved in cell proliferation and apoptosis evasion. In addition, it is reported to be involved in G1–S checkpoint transition and proliferation.
(§4) Analyzing the DNA content in the cell cycle phases by flow cytometry was conducted using FACSCalibur (Becton Dickinson, Franklin Lakes, NJ, USA) following the manufacturer’s manual. The cell cycle analysis procedures were as reported by on HepG2 cells after their treatment with the most promising derivatives for 48 h. Further assessment of the proapoptotic effect was determined by the Annexin V-FITC/PI apoptosis detection kit (Catalog # K101-25, BD Biosciences, San Diego, CA, USA).

HepG2 cells [6] = test: Annexin V-FITC/PI apoptosis detection; type: cell-based; settings: HepG2, 48 h
Description: Annexin V/PI staining with flow cytometric analysis was adapted to measure early and late apoptotic cells and necrotic cells as presented in Table 3 and Figure 6.
as §4

caspase-3 = test: Active caspase-3 ELISA in HepG2 cells; type: cell-based, human
Description: Apoptosis is known to be carried out through three different pathways: intrinsic, extrinsic, and granzyme pathways. One of the controlling proteins in apoptosis is the cysteine protease named caspase with the chief executer caspase 3 [46, 47]. Accordingly, assessing the effect of 3b and 4c on the active caspase-3 level was done in HepG2 cells taking doxorubicin as the reference drug.
The colorimetric ELISA assay for active caspase-3 detection was carried out utilizing Invitrogen™ Caspase-3 (Cleaved) Human ELISA-Kit (KHO1091, CA, USA) according to the manufacturer’s procedures. ROBONIK P2000 ELISA reader was used at 450 nm, and the standard curve was obtained by plotting the mean absorbance of each standard concentration against human caspase-3 concentrations.

VEGFR-2 [7] = target: T1, VEGFR-2; test: VEGFR2 (KDR) kinase assay kit; type: biochemical; set-up: purchased BPS Bioscience 40325; settings: read-out: VEGFR-2 kinase inhibitory activity IC50
Description: as §5

AKT-1 [8] = target: T2, AKT-1; test: Phospho-AKT1 (Ser473) cell-based phosphorylation ELISA in HepG2 cells; set-up: endogenous in cells; host or cells: HepG2
Description: To investigate the success of the design strategy developed in this work, the effect of the promising candidates 3b and 4c was assessed on AKT-1, a crucial protein, by determining their phosphorylation inhibition rate in HepG2 cells and measuring their biochemical kinase inhibitory activity.
VEGFR-2 phosphorylation was assayed using VEGFR2 Antibody (Phospho-Tyr951) (OAEC00085, AVIVA SYSTEM BIOLOGY), while Akt-1 was assayed by Mouse/Human/Rat Phospho-AKT1 (Ser473) (Cell-Based Phosphorylation ELISA) ELISA Kit-LS-F1447 (LSBio) according to manufacturer’s instructions.

T2 sequence (P31749 whole entry): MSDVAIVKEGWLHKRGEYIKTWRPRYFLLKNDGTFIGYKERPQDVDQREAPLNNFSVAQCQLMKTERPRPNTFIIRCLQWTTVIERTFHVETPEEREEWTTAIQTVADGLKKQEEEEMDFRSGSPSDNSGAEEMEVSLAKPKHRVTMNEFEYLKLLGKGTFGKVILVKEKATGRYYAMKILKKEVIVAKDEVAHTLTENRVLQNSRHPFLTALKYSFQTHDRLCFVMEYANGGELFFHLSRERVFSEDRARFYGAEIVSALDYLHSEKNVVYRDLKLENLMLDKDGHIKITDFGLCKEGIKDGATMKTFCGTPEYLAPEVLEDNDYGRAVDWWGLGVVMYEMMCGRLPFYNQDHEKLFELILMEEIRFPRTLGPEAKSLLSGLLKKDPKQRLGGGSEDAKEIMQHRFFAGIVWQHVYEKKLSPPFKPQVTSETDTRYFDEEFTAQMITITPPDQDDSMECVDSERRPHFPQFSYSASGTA
T1 sequence (P35968 20-1356): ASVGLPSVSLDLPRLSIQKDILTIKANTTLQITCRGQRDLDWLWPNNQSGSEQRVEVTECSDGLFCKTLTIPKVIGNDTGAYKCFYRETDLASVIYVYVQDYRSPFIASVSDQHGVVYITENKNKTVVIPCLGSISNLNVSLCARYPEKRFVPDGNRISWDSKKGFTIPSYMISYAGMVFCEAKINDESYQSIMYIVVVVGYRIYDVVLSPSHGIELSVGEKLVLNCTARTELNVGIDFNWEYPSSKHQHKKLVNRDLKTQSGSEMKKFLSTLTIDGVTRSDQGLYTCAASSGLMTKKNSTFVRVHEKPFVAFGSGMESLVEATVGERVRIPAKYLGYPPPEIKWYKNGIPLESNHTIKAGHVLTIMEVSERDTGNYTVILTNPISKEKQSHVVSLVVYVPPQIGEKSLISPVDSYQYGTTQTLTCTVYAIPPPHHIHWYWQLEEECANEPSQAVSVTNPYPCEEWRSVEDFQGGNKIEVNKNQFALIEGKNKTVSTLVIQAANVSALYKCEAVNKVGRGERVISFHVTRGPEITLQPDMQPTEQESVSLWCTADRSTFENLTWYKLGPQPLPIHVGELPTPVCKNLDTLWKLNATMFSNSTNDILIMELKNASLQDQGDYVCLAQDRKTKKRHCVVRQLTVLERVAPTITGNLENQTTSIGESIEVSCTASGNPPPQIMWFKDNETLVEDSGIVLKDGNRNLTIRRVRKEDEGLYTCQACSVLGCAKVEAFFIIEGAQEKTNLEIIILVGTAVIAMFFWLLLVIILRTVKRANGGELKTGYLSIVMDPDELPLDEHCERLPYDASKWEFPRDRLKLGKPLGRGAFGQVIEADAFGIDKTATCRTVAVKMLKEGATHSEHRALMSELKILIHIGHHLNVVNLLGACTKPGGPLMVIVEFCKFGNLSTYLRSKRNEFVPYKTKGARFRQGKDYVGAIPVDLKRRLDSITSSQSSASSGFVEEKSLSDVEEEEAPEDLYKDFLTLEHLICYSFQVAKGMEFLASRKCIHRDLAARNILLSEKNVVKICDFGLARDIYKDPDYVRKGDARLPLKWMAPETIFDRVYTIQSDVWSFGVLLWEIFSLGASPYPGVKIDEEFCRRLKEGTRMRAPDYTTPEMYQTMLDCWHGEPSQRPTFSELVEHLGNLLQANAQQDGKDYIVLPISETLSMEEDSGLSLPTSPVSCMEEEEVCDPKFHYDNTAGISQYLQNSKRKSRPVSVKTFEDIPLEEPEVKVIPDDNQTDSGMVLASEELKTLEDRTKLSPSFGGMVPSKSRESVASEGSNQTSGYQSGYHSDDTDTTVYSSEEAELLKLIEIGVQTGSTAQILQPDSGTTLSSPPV

melting point	SMILES	IC50 (HepG2 cells [1]; Homo sapiens, HepG2, MTT assay)	IC50 (PC-3 cells; Homo sapiens, PC-3, MTT assay)	also measured
82 to 83 °C	CCOC(=O)c1c(/N=C(/Nc2cc(C)ccc2Cl)SCC(=O)Nc2ccc(Cl)cc2)sc2c1N(C)CC2 [7a, Ethyl (Z)-2-((((2-chloro-5-methylphenyl)amino)((2-((4-chlorophenyl)amino)-2-oxoethyl)thio)methylene)amino)-4-methyl-5,6-dihydro-4H-thieno[3,2-b]pyrrole-3-carboxylate]	27.3 ± 1.26 µM	81.1 ± 4.54 µM	–
> 250 °C	CCOC(=O)c1c(/N=C(/Nc2cc(C)ccc2Cl)SCC(=O)Nc2ccc(Br)cc2)sc2c1N(C)CC2 [7b, Ethyl (Z)-2-((((2-((4-bromophenyl)amino)-2-oxoethyl)thio)((2-chloro-5-methylphenyl)amino)methylene)amino)-4-methyl-5,6-dihydro-4H-thieno[3,2-b]pyrrole-3-carboxylate]	2.48 ± 0.11 µM	26.6 ± 1.49 µM	–
110 to 112 °C	CCOC(=O)c1c(/N=C(/Nc2cc(C)ccc2Cl)SCC(=O)Nc2ccc(OC)cc2)sc2c1N(C)CC2 [7c, Ethyl (Z)-2-((((2-chloro-5-methylphenyl)amino)((2-((4-methoxyphenyl)amino)-2-oxoethyl)thio)methylene)amino)-4-methyl-5,6-dihydro-4H-thieno[3,2-b]pyrrole-3-carboxylate]	39.6 ± 1.83 µM	9.72 ± 0.54 µM	–
118 to 120 °C	CCOC(=O)c1c(/N=C(/Nc2cc(C)ccc2Cl)SCC(=O)Nc2ccc(C)cc2)sc2c1N(C)CC2 [7d, Ethyl (Z)-2-((((2-chloro-5-methylphenyl)amino)((2-oxo-2-(p-tolylamino)ethyl)thio)methylene)amino)-4-methyl-5,6-dihydro-4H-thieno[3,2-b]pyrrole-3-carboxylate]	8.91 ± 0.41 µM	6.35 ± 0.36 µM	–

Continued, molecule first:

SMILES	melting point	IC50 (HepG2 cells [1]; Homo sapiens, HepG2, MTT assay)	IC50 (PC-3 cells; Homo sapiens, PC-3, MTT assay)	also measured
CN1CCc2sc3nc(-c4ccccc4)[nH]c(=O)c3c21 [3a, 5-Methyl-2-phenyl-3,5,6,7-tetrahydro-4H-pyrrolo[2′,3′:4,5]thieno[2,3-d]pyrimidin-4-one]	> 250 °C	7.96 ± 0.37 µM	29.6 ± 1.66 µM	–
CN1CCc2sc3nc(-c4ccc(Br)cc4)[nH]c(=O)c3c21 [3c, 2-(4-Bromophenyl)-5-methyl-3,5,6,7-tetrahydro-4H-pyrrolo[2′,3′:4,5]thieno[2,3-d]pyrimidin-4-one]	113 to 114 °C	107 ± 4.94 µM	10.5 ± 0.59 µM	–
CN1CCc2sc3nc(-c4ccc(F)cc4)[nH]c(=O)c3c21 [3d, 2-(4-Fluorophenyl)-5-methyl-3,5,6,7-tetrahydro-4H-pyrrolo[2′,3′:4,5]thieno[2,3-d]pyrimidin-4-one]	108 to 110 °C	13.4 ± 0.62 µM	19 ± 1.06 µM	–
Cc1ccc(-c2nc3sc4c(c3c(=O)[nH]2)N(C)CC4)cc1 [3e, 5-Methyl-2-(p-tolyl)-3,5,6,7-tetrahydro-4H-pyrrolo[2′,3′:4,5]thieno[2,3-d]pyrimidin-4-one]	155 to 156 °C	22.4 ± 1.03 µM	39.7 ± 2.22 µM	–
COc1ccc(-c2nc3sc4c(c3c(=O)[nH]2)N(C)CC4)cc1 [3f, 2-(4-Methoxyphenyl)-5-methyl-3,5,6,7-tetrahydro-4H-pyrrolo[2′,3′:4,5]thieno[2,3-d]pyrimidin-4-one]	117 to 118 °C	4.3 ± 0.2 µM	7.47 ± 0.42 µM	IC50 (HepG2 cells [1]; MTT assay): 4.3 ± 0.2 µM; IC50 (PC-3 cells; MTT assay): 7.47 ± 0.42 µM
COc1cc(-c2nc3sc4c(c3c(=O)[nH]2)N(C)CC4)cc(OC)c1OC [3g, 5-Methyl-2-(3,4,5-trimethoxyphenyl)-3,5,6,7-tetrahydro-4H-pyrrolo[2′,3′:4,5]thieno[2,3-d]pyrimidin-4-one]	–	3.77 ± 0.17 µM	20.5 ± 1.15 µM	–
CCOC(=O)c1c(NC(=S)NC)sc2c1N(C)CC2 [4a, Ethyl 4-methyl-2-(3-methylthioureido)-5,6-dihydro-4H-thieno[3,2-b]pyrrole-3-carboxylate]	132 to 134 °C	41.1 ± 1.9 µM	1.84 ± 0.1 µM	–
CCNC(=S)Nc1sc2c(c1C(=O)OCC)N(C)CC2 [4b, Ethyl 2-(3-ethylthioureido)-4-methyl-5,6-dihydro-4H-thieno[3,2-b]pyrrole-3-carboxylate]	135 to 136 °C	34.2 ± 1.58 µM	19.3 ± 1.08 µM	–
CCOC(=O)c1c(NC(=S)Nc2cc(C)ccc2Cl)sc2c1N(C)CC2 [4c, Ethyl 2-(3-(2-chloro-5-methylphenyl)thioureido)-4-methyl-5,6-dihydro-4H-thieno[3,2-b]pyrrole-3-carboxylate]	–	3.02 µM	3.12 ± 0.17 µM	IC50 (HepG2 cells [1]; MTT assay): 3.02 ± 0.14 µM; IC50 [2]: 35.3 ± 1.92 µM; Selectivity Index (SI) (WI38 cells): 12 and 11.68; VEGFR-2 phosphorylation inhibition (VEGFR-2 [3]): 70%; IC50 (AKT-1 [4]): 4.6 µM; % Content of DNA, G0:G1 (HepG2 cells [5]): 53.28%; % Content of DNA, G2:M (HepG2 cells [5]): 1.48%; % Content of DNA, PreG1 (HepG2 cells [5]): 29.81%; % Content of DNA, S (HepG2 cells [5]): 45.24%; Increase in early apoptotic cells over untreated cells (HepG2 cells [6]): 7 fold; Increase in late apoptotic cells over untreated cells (HepG2 cells [6]): 97 fold; Apoptosis, Total (cells percentage) (HepG2 cells [6]; at IC50): 29.81%; Apoptosis, Early (cells percentage) (HepG2 cells [6]; at IC50, Q2 in Figure 6): 3.85%; Apoptosis, Late (cells percentage) (HepG2 cells [6]; at IC50, Q3 in Figure 6): 16.55%; Necrosis (cells percentage) (HepG2 cells [6]; at IC50, Q4 in Figure 6): 9.41%; Increase in active caspase-3 level over the untreated cells (caspase-3): six-fold; IC50 (VEGFR-2 [7]): 0.075 µM; AKT-1 phosphorylation inhibition rate (AKT-1 [8]): 71.6%
CCOC(=O)c1c(/N=C(/NC)SCC(=O)Nc2ccc(Cl)cc2)sc2c1N(C)CC2 [6a, Ethyl (Z)-2-((((2-((4-chlorophenyl)amino)-2-oxoethyl)thio)(methylamino)methylene)amino)-4-methyl-5,6-dihydro-4H-thieno[3,2-b]pyrrole-3-carboxylate]	140 to 141 °C	9.8 ± 0.45 µM	0.5 ± 0.03 µM	–
COc1cccc2c1C(=O)c1c(O)c3c(c(O)c1C2=O)C[C@@](O)(C(=O)CO)C[C@@H]3O[C@H]1C[C@H](N)[C@H](O)[C@H](C)O1 [Doxorubicin, reference compound]	–	2.09 ± 0.1 µM	2.53 ± 0.14 µM	IC50 [2]: 9.84 ± 0.54 µM; Selectivity Index (SI) (WI38 cells): 4.69; Selectivity Index (SI) (WI38 cells; listed as doxorubicin): 5; Increase in active caspase-3 level over the untreated cells (caspase-3): seven-fold
CN(C)CCn1cc(-c2ccc(F)c(C(F)(F)F)c2)nc1C1CCN(c2ncnc3c2CC(=O)N3)CC1 [LY2780301, reference compound]	–	–	–	IC50 (AKT-1 [4]): 4.62 µM; AKT-1 phosphorylation inhibition rate (AKT-1 [8]): 68.6%
